In patent publication US10106627B2, “Process for the preparation of polymeric biosurfactants” (priority 2014, dated 2018):

What was measured:
[1] = system: RAW 264.7 macrophages; test: In vitro MTT assay, proliferation of RAW 264.7 macrophages; format: cell-based, mouse; conditions: 200 μg ml-1, 48 h
Description: The effect of Brevisan, Microsan and M-EPS-Au-NP on the proliferation of RAW 264.7 macrophages (ATCC No. CRL-2278) was measured by in vitro MTT assay using the previously described method [Mosmann, T. (1983) J. Immunol. Methods 65, 55-63], which is based on the cell-mediated reduction of tetrazolium salt to form water insoluble formazan crystals. The MTT assay was performed with different concentrations (1-200 μg ml-1) of Brevisan, Microsan and M-EPS-Au-NP were incubated for 48 h using laminarin as a control.

[2] = system: C3 complement component in RAW 264.7 macrophages; test: LPS-induced C3 complement component production ELISA in RAW 264.7 macrophages; format: cell-based, mouse; conditions: 1, 10, 20 and 50 μg/ml; LPS 100 ng ml^−1 24 h
Description: The effect of Brevisan, Microsan and M-EPS-Au-NP on C3 complement component was measured using ELISA kits (Antibodies, Atlanta, USA). RAW 264.7 cells were treated with Brevisan, Microsan and M-EPS-Au-NP at 1, 10, 20 and 50 μg/ml, respectively, and then stimulated with 100 ng ml^−1 of LPS. After incubating for 24 h, 50 μl of supernatant was collected and added to each well in an antibody coated 96-well plate. After I h, the wells were washed with PBS and incubated with 100 μl of horse radish peroxidase (HRP)-conjugate for 1 h at 37° C. and then incubated with 50 μl of O-phenylenediamine (0.2% w/v in 0.017 M citrate phosphate buffer, pH 6) and 50 μl of 0.015% hydrogen peroxide for 15 min and the reaction was stopped by adding 50 μl of 12.5% sulphuric acid and the optical density was measured at 450 nm using Biotek EIA Reader (Biotek Instruments, Inc., VT, USA). The results shown are the average of three independent experiments. Further, the hemolytic activity of the secreted C3 was measured as described earlier [Gasque, P., Julen, N., Ischenko, A. M., Picot, C., Mauger, C., Chauzy, C., Ripoche, J. and Fontaine, M. (1992) J. Immunol. 149, 1381-1389]. […] Then 1.5 ml of PBS was added, centrifuged at 10,000 rpm for 5 min and the hemoglobin released present in the supernatant was quantified by measuring the absorbance at 415 nm. […]

For “β-D-glucuronyl-(1-2)-D-mannosyl-(1-4)-D-glucose [Microsan]”, the “cell proliferation (MTT)” value [1] was 89.07% and the “inhibition of C3 complement component production” value [2] was “did not inhibit”.
